Paper PMC6440464 (PeerJ, 2019)
Values joined by “and” are separate entries in the source; they are usually repeats but may differ in a detail not shown here. Equal values may be shown once.

Columns and labels:
lipid peroxidation = test system: lipid peroxidation; set-up: method as in Shirai et al., 2001; settings: 10 mM; ref Shirai et al., 2001; cited from earlier work
[1] = Pharmacokinetics study after separate oral administration in rats (HPLC-MS of plasma); type: in vivo, Sprague-Dawley rats; settings: for Plasma concentrations: individual rats NO. 1-5; for AUC(0-t) / Cmax / MRT(0-t) / Tmax / t1/2z / CLz/F: labelled substance = analyte, individual rats No1-No5
Method: A total of 15 SPF Sprague-Dawley rats (SD, male, 190–210 g) were provided by Sino-British Sippr/BK Lab Animal Company Ltd. (Shanghai, China). The rats were kept in standard conditions (22–26 °C; 40–60% relative humidity; 12 h light/dark cycle). Throughout the rearing period, the animals had access to food and water ad libitum. Animal experiments were conducted in accordance with the standard ethical guidelines of the Laboratory Animal Management Committee of Jiangsu Province (SYXK (SU) 2016-0011).
Following 1 week of adaptation, the rats were fasted for about 12 h before dosing, with free access to water. […] After administration of the first dose, blood samples were taken from the retro-orbital vein at 0, 5, 15, 30, 60, 90, 120, 180, 240, 360, 480, and 1,440 min and collected in heparinized tubes. The samples were centrifuged at 3,500 rpm for 10 min at 4 °C and the plasma was stored at −80 °C until analysis.
An Agilent 1,200 series HPLC system (Agilent Technologies, Waldbronn, Germany) equipped with a quaternary pump on-line degasser, auto-sampler and column oven, and an SL G1946D quadruple mass spectrometer (Agilent Technologies, Santa Clara, CA, USA) equipped with an electrospray ionization (ESI) source, were used for separation and detection. Data were acquired and analyzed using Agilent ChemStation Software Version A.01.00 (Agilent Technologies, Santa Clara, CA, USA).
The separation was carried out with an Amethyst C18-H column (150 × 4.6 mm, 5 μm, Sepax Technologies, Newark, DE, USA) with a guard column SB-C18 (10 × 4.6 mm, 5 μm, Phenomenex Technologies, Torrance, USA) at a constant temperature of 25 °C.
The mass spectra were acquired using ESI interfaced to a single quadrupole mass spectrometer. The ionization conditions were as follows: drying gas (N2) flow rate of 11 L/min, drying gas temperature of 350 °C, nebulizing gas (N2) pressure of 35 psi, capillary voltage of 3,500 V, quad temperature of 100 °C, and fragment voltage of 110 V. A series of m/z were monitored using a timed program according to the retention times and characteristic ions for the corresponding HPLC-MS peak obtained by scanning from m/z 100–1,000 in the standard sample.
Briefly, an aliquot of plasma sample (100 μL) was spiked with 5% formic acid (10 μL) in centrifuge tube. Subsequently, hydrochloric acid (2 mol/L, 10 μL) and IS solution (960.00 ng/mL, 20 μL) were added. Then ethyl acetate/n-butyl alcohol (1:1 v/v; 1,000 μL) was used to extract the components. The samples were then homogenized by vortex mixing and centrifuged for 10 min at 14,000 rpm. After centrifugation, 800 μL of supernatant was transferred to another centrifuge tube and the sample was evaporated to dryness. The residues were dissolved in 100 μL of methanol and centrifuged for 10 min at 12,000 rpm. 50 μL of the supernatant was transferred to the vial and an aliquot of 5 μL was injected into the HPLC-MS system for analysis.
DAS 2.0 (Chinese Pharmacological Association, Shanghai, China) was used to calculate the pharmacokinetic parameters using the non-compartment model, including the area under curve (AUC), mean residence time (MRT), half-life ( t1/2z), clearance rate (CL), maximum plasma concentration (Cmax), and time (Tmax). All results are expressed as mean ± standard deviation (SD). One way analysis of variance followed by […] was used for comparison of different groups using Graph pad prism 5 software. A p-value of <0.05 was considered statistically significant.

[2] = IQ group (oral IQ 50 mg/kg), rat plasma
[3] = QG group (oral QG 50 mg/kg), rat plasma
[4] = Qr group (oral Qr 50 mg/kg), rat plasma

For `O=C(O)[C@H]1O[C@@H](Oc2c(-c3ccc(O)c(O)c3)oc3cc(O)cc(O)c3c2=O)[C@H](O)[C@@H](O)[C@@H]1O` [QG, Quercetin-3-O-β-D-glucuronide], the “Inhibition of lipid peroxidation” value (lipid peroxidation) is listed as “can inhibit lipid peroxidation”, the Plasma concentrations ([1]; IQ group (oral IQ 50 mg/kg), 5 min) is listed as 0.7646 µg/mL and 1.0569 µg/mL and the Plasma concentrations ([1]; IQ group (oral IQ 50 mg/kg), 120 min) is listed as 0.6158 µg/mL and 0.5082 µg/mL and 0.7807 µg/mL and 0.6334 µg/mL. The Plasma concentrations ([1]; IQ group (oral IQ 50 mg/kg), 180 min) was 0.8736 µg/mL and 0.5334 µg/mL and 0.3826 µg/mL and 0.3965 µg/mL and 0.7922 µg/mL, the Plasma concentrations ([1]; IQ group (oral IQ 50 mg/kg), 240 min) was 0.2228 µg/mL and 0.5709 µg/mL and 0.5714 µg/mL and 0.4349 µg/mL and 0.8190 µg/mL and the Plasma concentrations ([1]; IQ group (oral IQ 50 mg/kg), 360 min) was 0.1194 µg/mL and 0.8107 µg/mL and 0.4137 µg/mL and 0.6925 µg/mL and 0.8505 µg/mL. The Plasma concentrations ([1]; IQ group (oral IQ 50 mg/kg), 480 min) was 0.4225 µg/mL and 0.4165 µg/mL and 0.1673 µg/mL and 0.2461 µg/mL and 0.7377 µg/mL, the Plasma concentrations ([1]; IQ group (oral IQ 50 mg/kg), 1440 min) was 0.0935 µg/mL and 0.0847 µg/mL and 0.0809 µg/mL and 0.0651 µg/mL and 0.3494 µg/mL and the “AUC(0-t)” value [1, 2] was 597.432 mg·min/L and 994.801 mg·min/L and 564.315 mg·min/L and 660.84 mg·min/L. For the same compound, the Cmax [1, 2] was 4534 ng/mL and 5953 ng/mL and 2825 ng/mL and 2800 ng/mL and 3414 ng/mL, the “MRT(0-t)” value [1, 2] was 4.64393 h and 8.49298 h and 6.06248 h and 5.82378 h and the Tmax [1, 2] was 30 min. For the same compound, the t1/2z [1, 2] was 7.29975 h and 8.1253 h and 14.3264 h and 6.69975 h and 7.17603 h, the “Detection in rat plasma” value ([1]; IQ group: oral IQ 50 mg/kg) was “measured” and the Plasma concentrations ([1]; QG group (oral QG 50 mg/kg), 5 min) was 0.0814 µg/mL and 0.1791 µg/mL and 0.1562 µg/mL and 0.4345 µg/mL and 0.2229 µg/mL. The Plasma concentrations ([1]; QG group (oral QG 50 mg/kg), 120 min) was 0.0799 µg/mL and 0.2388 µg/mL and 0.5950 µg/mL and 0.1120 µg/mL and 0.2189 µg/mL, the Plasma concentrations ([1]; QG group (oral QG 50 mg/kg), 180 min) was 0.7950 µg/mL and 1.4327 µg/mL and 2.4032 µg/mL and 0.2061 µg/mL and 1.3248 µg/mL and the Plasma concentrations ([1]; QG group (oral QG 50 mg/kg), 240 min) was 1.3178 µg/mL and 2.6305 µg/mL and 2.4984 µg/mL and 0.6490 µg/mL and 1.6470 µg/mL. For the same compound, the Plasma concentrations ([1]; QG group (oral QG 50 mg/kg), 360 min) was 0.1076 µg/mL and 2.2429 µg/mL and 3.2289 µg/mL and 1.3605 µg/mL and 1.5082 µg/mL, the Plasma concentrations ([1]; QG group (oral QG 50 mg/kg), 480 min) was 0.0874 µg/mL and 0.7211 µg/mL and 1.7586 µg/mL and 0.4951 µg/mL and 0.6594 µg/mL and the Plasma concentrations ([1]; QG group (oral QG 50 mg/kg), 1440 min) was 0.0575 µg/mL and 0.2816 µg/mL and 0.1651 µg/mL and 0.1404 µg/mL and 0.1134 µg/mL. The “AUC(0-t)” value [1, 3] was 268.635 mg·min/L and 1176.18 mg·min/L and 1861.7 mg·min/L and 635.402 mg·min/L and 871.691 mg·min/L, the CLz/F [1, 3] was 0.17 L/min/kg and 0.038 L/min/kg and 0.026 L/min/kg and 0.067 L/min/kg and 0.054 L/min/kg and the Cmax [1, 3] was 1318 ng/mL and 2631 ng/mL and 3229 ng/mL and 1365 ng/mL and 1647 ng/mL. The “MRT(0-t)” value [1, 3] was 7.8607 h and 7.11965 h and 7.95713 h and 7.028 h, the t1/2z [1, 3] was 6.12582 h and 5.27942 h and 8.9772 h and 6.00847 h and the “Detection in rat plasma” value ([1]; QG group: oral QG 50 mg/kg) was “could be detected in rat plasma”. For the same compound, the CL ([1]; QG group: oral QG 50 mg/kg, rat plasma, mean ± SD, n = 5) was 71 ± 57 mL/min/kg, the Plasma concentrations ([1]; Qr group (oral Qr 50 mg/kg), 5 min) was 0.3755 µg/mL and 1.9735 µg/mL and 1.3717 µg/mL and 1.2834 µg/mL and the Plasma concentrations ([1]; Qr group (oral Qr 50 mg/kg), 120 min) was 1.6399 µg/mL and 0.4649 µg/mL and 2.4126 µg/mL and 2.1713 µg/mL and 0.6055 µg/mL. For the same compound, the Plasma concentrations ([1]; Qr group (oral Qr 50 mg/kg), 180 min) was 1.1714 µg/mL and 0.4542 µg/mL and 1.7560 µg/mL and 4.1932 µg/mL and 1.1826 µg/mL, the Plasma concentrations ([1]; Qr group (oral Qr 50 mg/kg), 240 min) was 1.0033 µg/mL and 1.3275 µg/mL and 1.0605 µg/mL and 1.9477 µg/mL and 0.8307 µg/mL and the Plasma concentrations ([1]; Qr group (oral Qr 50 mg/kg), 360 min) was 1.0844 µg/mL and 1.0457 µg/mL and 0.9781 µg/mL and 1.2903 µg/mL and 0.5532 µg/mL. The Plasma concentrations ([1]; Qr group (oral Qr 50 mg/kg), 480 min) was 0.9932 µg/mL and 0.4529 µg/mL and 0.7247 µg/mL and 0.7786 µg/mL and 0.5843 µg/mL, the Plasma concentrations ([1]; Qr group (oral Qr 50 mg/kg), 1440 min) was 0.1552 μg/mL and 0.4031 μg/mL and 0.5308 μg/mL and 0.0000 μg/mL (2×) and the “AUC(0-t)” value [1, 4] was 1269.04 mg·min/L and 1058.23 mg·min/L and 1705.01 mg·min/L and 1261.98 mg·min/L and 455.81 mg·min/L. For the same compound, the CLz/F [1, 4] was 0.037 L/min/kg and 0.034 L/min/kg (2×) and 0.019 L/min/kg and 0.093 L/min/kg, the Cmax [1, 4] was 4415 ng/mL and 6941.3 ng/mL and 9165 ng/mL and 9211 ng/mL and 2540 ng/mL and the “MRT(0-t)” value [1, 4] was 6.1781 h and 7.68988 h and 6.69422 h and 2.72245 h and 3.04182 h. For the same compound, the Tmax [1, 4] was 30 min and 60 min (2×), the t1/2z [1, 4] was 7.30138 h and 12.1634 h and 20.1775 h and 3.02307 h and 2.81598 h and the “Detection in rat plasma” value ([1]; Qr group: oral Qr 50 mg/kg) was “detected”.
